Assay results taken from ChEMBL document CHEMBL6153062, “Design, Synthesis, and Unprecedented Interactions of Covalent Dipeptide-Based Inhibitors of SARS-CoV-2 Main Protease and Its Variants Displaying Potent Antiviral Activity” (J Med Chem, 2025).

Tests used:
[1] = Inhibition of SARS-CoV-2 MPro using Boc-Abu-Tle-Leu-Gln-AMC as substrate preincubated for 5 mins followed by substrate addition and measured after 60 mins; parameters: species or system Severe acute respiratory syndrome coronavirus 2
SARS-CoV-2 [2] = assay type: functional, organism-based; conditions: Severe acute respiratory syndrome coronavirus 2, B.1.513, Calu-3
Calu-3 = experiment: Cytotoxicity against human Calu-3 cells assessed as reduction in cell viability at 10 uM measured after 24 hrs by celltiter-glo assay; assay type: functional, cell-based
[3] = Inhibition of recombinant SARS-CoV-1 Main protease using Ac-Abu-Tle-Leu-Gln-ACC as substrate incubated for 15 mins by fluorescence based microplate reader analysis; parameters: species or system Severe acute respiratory syndrome-related coronavirus
[4] = Inhibition of MERS-CoV Main protease using Ac-Abu-Tle-Leu-Gln-ACC as substrate incubated for 15 mins by fluorescence based microplate reader analysis; parameters: species or system Middle East respiratory syndrome-related coronavirus
[5] = tested on: Middle East respiratory syndrome-related coronavirus; experiment: Inhibition of MERS-CoV Main protease using Ac-Abu-Tle-Leu-Gln-ACC as substrate at 10 uM incubated for 15 mins by fluorescence based microplate reader analysis relative to control
[6] = tested on: Severe acute respiratory syndrome coronavirus 2; experiment: Inhibition of SARS-CoV-2 MPro using Boc-Abu-Tle-Leu-Gln-AMC as substrate assessed as Kinact/Ki ratio preincubated for 5 mins followed by substrate addition and measured after 60 mins; conditions: time 65.0 min
[7] = Reversible inhibition of SARS-CoV-2 MPro using Boc-Abu-Tle-Leu-Gln-AMC as substrate preincubated for 5 mins followed by substrate addition and measured after 60 mins; parameters: species or system Severe acute respiratory syndrome coronavirus 2
SARS-CoV-2 [8] = experiment: microbe, parasite or virus in culture; conditions: Severe acute respiratory syndrome coronavirus 2
[9] = Irreversible inhibition of SARS-CoV-2 MPro using Boc-Abu-Tle-Leu-Gln-AMC as substrate preincubated for 5 mins followed by substrate addition and measured after 60 mins; parameters: species or system Severe acute respiratory syndrome coronavirus 2

Structure (SMILES) | IC50 [1] [nM] | EC50 (SARS-CoV-2 [2]) [nM] | Activity (Calu-3) | IC50 [3] [nM] | Ratio [6] [M⁻¹ s⁻¹] | other results
C=CC(=O)[C@H](Cc1ccccc1)NC(=O)[C@H](CC(C)C)NC(=O)/C=C/c1ccc(OC(F)(F)F)cc1 | 481 | 34.4 | Not toxic | 72 | – | IC50 [4]: > 10000 nM; inhibition [5]: 32%
C=CC(=O)[C@H](Cc1ccccc1)NC(=O)[C@H](CC(C)C)NC(=O)c1cc2ccccc2o1 | 405 | – | – | 20 | 9900 | IC50 [4]: 942 nM
CC(C)C[C@H](NC(=O)c1cc2ccccc2o1)C(=O)N[C@@H](Cc1ccccc1)C(=O)C=CN(C)C | > 10000 | – | – | – | – | –
C=CC(=O)[C@H](Cc1ccccc1)NC(=O)[C@H](CC(C)C)NC(=O)C(C)(C)Sc1ccccc1 | 71 | 86.2 | Not toxic | – | – | IC50 [7]: 71 nM
C=CC(=O)[C@H](Cc1cccc(Cl)c1)NC(=O)[C@H](CC(C)C)NC(=O)COc1cccc(OC)c1 | – | 45.2 | Not toxic | – | – | IC50 [7]: 24 nM
C=CC(=O)[C@H](Cc1ccccc1)NC(=O)[C@H](CC(C)C)NC(=O)c1cc(C(C)(C)C)nn1C | 599 | – | – | – | 5400 | –
C=CC(=O)[C@H](Cc1ccccc1)NC(=O)[C@H](CC(C)C)NC(=O)/C=C/c1ccccc1 | 131 | – | – | 110 | 9630 | –
C=CC(=O)[C@H](Cc1ccccc1)NC(=O)[C@H](CC(C)C)NC(=O)CCc1ccc(OC(F)(F)F)cc1 | 184 | – | – | – | 14000 | –
C=CC(=O)[C@H](Cc1ccccc1)NC(=O)[C@H](CC(C)C)NC(=O)c1csc(-c2ccccc2)n1 | 151 | – | – | – | 32500 | –
C=CC(=O)[C@H](Cc1cccc(Cl)c1)NC(=O)[C@H](CC(C)C)NC(=O)COc1ccc(Cl)cc1Cl | – | – | Not toxic | 13 | – | IC50 [7]: 37 nM; IC50 [4]: > 10000 nM; inhibition [5]: 44%
C=CC(=O)[C@H](Cc1ccccc1)NC(=O)[C@H](CC(C)C)NC(=O)COc1ccc(Cl)cc1 | 97 | 181 | Not toxic | 203 | – | IC50 [4]: 1420 nM
CC(C)(C)[C@H](NC(=O)C(F)(F)F)C(=O)N1CC2(C[C@H]1C(=O)N[C@H](C#N)C[C@@H]1CCNC1=O)SCCS2 | – | – | – | – | – | EC50 (SARS-CoV-2 [8]): 30 nM
C=CC(=O)[C@H](Cc1ccccc1)NC(=O)[C@H](CC(C)C)NC(=O)/C=C/c1ccc(Cl)cc1Cl | 338 | – | – | – | 7000 | –
CC(C)C[C@H](NC(=O)c1cc2ccccc2s1)C(=O)N[C@@H](Cc1ccccc1)C(=O)C=CN(C)C | 18900 | – | – | – | – | –
C=CC(=O)[C@H](Cc1ccccc1)NC(=O)[C@H](CC(C)C)NC(=O)CCc1ccccc1 | 187 | – | – | – | 16100 | –
C=CC(=O)[C@H](Cc1ccccc1)NC(=O)[C@H](CC(C)C)NC(=O)c1cc(C)on1 | 449 | – | – | – | 21300 | –
C=CC(=O)[C@H](Cc1ccccc1F)NC(=O)[C@H](CC(C)C)NC(=O)COc1ccc(Cl)cc1Cl | 159 | – | – | – | 13300 | –
C=CC(=O)[C@H](Cc1ccccc1)NC(=O)[C@H](CC(C)C)NC(=O)/C=C/c1ccc(N(C)C)cc1 | 279 | 320 | Not toxic | 57 | – | IC50 [4]: > 10000 nM; inhibition [5]: 40%
C=CC(=O)[C@H](Cc1ccccc1)NC(=O)[C@H](CC(C)C)NC(=O)c1sc(-c2ccccc2)nc1C | 117 | – | – | – | 29000 | –
C=CC(=O)[C@H](Cc1ccccc1)NC(=O)[C@H](CC(C)C)NC(=O)CSc1cccc(OC)c1 | – | 173 | Not toxic | – | – | IC50 [9]: 47 nM
C=CC(=O)[C@H](Cc1ccccc1)NC(=O)[C@H](CC(C)C)NC(=O)c1cc2ccccc2s1 | 221 | – | – | – | 21700 | –

Structure (SMILES) | IC50 [1] [nM] | EC50 (SARS-CoV-2 [2]) [nM] | Activity (Calu-3) | IC50 [3] [nM] | Ratio [6] [M⁻¹ s⁻¹] | other results
CC(C)C[C@H](NC(=O)OCc1ccccc1)C(=O)N[C@H](C=O)C[C@@H]1CCNC1=O | – | – | – | 44 | – | IC50 [4]: 78 nM
C=CC(=O)[C@H](Cc1ccccc1)NC(=O)[C@H](CC(C)C)NC(=O)/C=C/c1cc(OC)cc(OC)c1 | 725 | – | – | 23 | 9130 | IC50 [4]: > 10000 nM; inhibition [5]: 48%
O=C(NC1CCCC1)C(=O)[C@H](C[C@@H]1CCNC1=O)NC(=O)[C@@H]1[C@H]2CCC[C@H]2CN1C(=O)[C@@H](NC(=O)C(F)(F)F)C1CCCCC1 | – | – | – | – | – | EC50 (SARS-CoV-2 [8]): 90 nM
C=CC(=O)[C@H](Cc1cccc(F)c1)NC(=O)[C@H](CC(C)C)NC(=O)COc1ccc(Cl)cc1Cl | – | 3410 | Not toxic | – | – | IC50 [7]: 44 nM
C=CC(=O)[C@H](Cc1ccccc1)NC(=O)[C@H](CC(C)C)NC(=O)CCc1ccc(Cl)cc1Cl | – | 111 | Not toxic | – | – | IC50 [7]: 74 nM
C=CC(=O)[C@H](Cc1ccccc1)NC(=O)[C@H](CC(C)C)NC(=O)COc1cc(Cl)c(Cl)cc1Cl | 134 | – | – | – | 26500 | –
C=CC(=O)[C@H](Cc1c[nH]c2ccccc12)NC(=O)[C@H](CC(C)C)NC(=O)COc1ccc(Cl)cc1Cl | 316 | – | – | 58 | – | IC50 [4]: 1080 nM
C=CC(=O)[C@H](Cc1ccccc1)NC(=O)[C@H](CC(C)C)NC(=O)CCc1ccc(N(C)C)cc1 | 152 | – | – | – | 14700 | –
CC(C)C[C@H](NC(=O)CSc1ccccc1)C(=O)N[C@@H](Cc1ccccc1)C(=O)c1nc2ccccc2s1 | > 10000 | – | – | – | – | –
C=CC(=O)[C@H](Cc1ccccc1)NC(=O)[C@H](CC(C)C)NC(=O)c1cc2ccccc2n1C | – | 395 | Not toxic | – | – | IC50 [7]: 96 nM
C=CC(=O)[C@H](Cc1ccccc1)NC(=O)[C@H](CC(C)C)NC(=O)/C=C/c1ccc(Cl)cc1 | 63 | 230 | Not toxic | – | – | –
C=CC(=O)[C@H](Cc1ccccc1)NC(=O)[C@H](CC(C)C)NC(=O)c1cc2ccccc2[nH]1 | 117 | 2.57 | Not toxic | 357 | – | IC50 [4]: 69.7 nM
C=CC(=O)[C@H](Cc1cccc(F)c1)NC(=O)[C@H](CC(C)C)NC(=O)CSc1ccccc1 | – | 4.13 | Not toxic | – | – | IC50 [9]: 21 nM
C=CC(=O)[C@H](Cc1ccccc1)NC(=O)[C@H](CC(C)C)NC(=O)c1ccc(-c2ccccc2)o1 | 363 | – | – | 22 | 16400 | IC50 [4]: 538 nM
C=CC(=O)[C@H](Cc1ccccc1)NC(=O)[C@H](CC(C)C)NC(=O)c1ccc(-c2ccccc2)s1 | 183 | – | – | – | 15500 | –
C=CC(=O)[C@H](Cc1ccccc1)NC(=O)[C@H](CC(C)C)NC(=O)C1CCc2ccccc2O1 (stereo not given in full) | 227 | – | – | – | 14900 | –
C=CC(=O)[C@H](Cc1ccccc1)NC(=O)[C@H](CC(C)C)NC(=O)COc1ccccc1 | – | 12.4 | Not toxic | 27 | – | IC50 [7]: 62 nM; IC50 [4]: 138 nM
C=CC(=O)[C@H](Cc1ccccc1)NC(=O)[C@H](CC(C)C)NC(=O)COc1cccc(OC)c1 | 89 | 557 | Not toxic | 57 | – | IC50 [4]: 565 nM
CC(C)C(=O)OC[C@H]1O[C@@H](n2cc/c(=N\O)[nH]c2=O)[C@H](O)[C@@H]1O [MOLNUPIRAVIR] | – | 3.23 | – | – | – | –
C=CC(=O)[C@H](Cc1ccccc1)NC(=O)[C@H](CC(C)C)NC(=O)COc1cccc(N(C)C)c1 | 131 | – | Not toxic | – | 22600 | –
C=CC(=O)[C@H](Cc1ccccc1)NC(=O)[C@H](CC(C)C)NC(=O)C1CC1c1ccccc1 (stereo not given in full) | 138 | – | – | – | 14500 | –
